Reference: the NIST ThermoML archive (doi:10.1016/j.jct.2016.11.007)

Assay: mn = molality of the nth substance listed, in mol/kg
Details: Liquid, Alternating current cell with electrodes

OB(O)O [boric acid] + O
Details	electrical conductivity [S/m]
298.15 K, 19767 kPa, m1 = 0.000461	2.9e-05
298.15 K, 19767 kPa, m1 = 0.001034	4.34e-05
298.15 K, 19767 kPa, m1 = 0.002214	7.29e-05
298.15 K, 19767 kPa, m1 = 0.003558	8.46e-05
298.15 K, 19767 kPa, m1 = 0.006801	0.000104
298.15 K, 19767 kPa, m1 = 0.01448	0.000141
298.15 K, 19767 kPa, m1 = 0.03227	0.000203
298.15 K, 19767 kPa, m1 = 0.05626	0.000261
298.15 K, 19767 kPa, m1 = 0.1313	0.000513
373.33 K, 19683 kPa, m1 = 0.002216	0.000155
373.33 K, 19683 kPa, m1 = 0.01449	0.000175
373.33 K, 19683 kPa, m1 = 0.02381	0.000262
373.33 K, 19683 kPa, m1 = 0.04334	0.000409
373.33 K, 19683 kPa, m1 = 0.07421	0.000597
448.23 K, 19666 kPa, m1 = 0.0004623	0.000302
448.23 K, 19666 kPa, m1 = 0.00294	0.000347
448.23 K, 19666 kPa, m1 = 0.00873	0.000421
448.23 K, 19666 kPa, m1 = 0.01287	0.000473
448.23 K, 19666 kPa, m1 = 0.0243	0.00059
448.23 K, 19666 kPa, m1 = 0.03791	0.000706
448.23 K, 19666 kPa, m1 = 0.07013	0.000939
448.23 K, 19666 kPa, m1 = 0.1015	0.00114
523.32 K, 19674 kPa, m1 = 0.0005523	0.000382
523.32 K, 19674 kPa, m1 = 0.001757	0.000393
523.32 K, 19674 kPa, m1 = 0.004534	0.000408
523.32 K, 19674 kPa, m1 = 0.009517	0.000445
523.32 K, 19674 kPa, m1 = 0.02168	0.000515
523.32 K, 19674 kPa, m1 = 0.04237	0.000632
523.32 K, 19674 kPa, m1 = 0.07216	0.00078
523.32 K, 19674 kPa, m1 = 0.1017	0.000922
547.2 K, 20900 kPa, m1 = 0.0009361	0.000382
547.2 K, 20900 kPa, m1 = 0.002371	0.000395
547.2 K, 20900 kPa, m1 = 0.003744	0.000405
547.2 K, 20900 kPa, m1 = 0.00586	0.000419
547.2 K, 20900 kPa, m1 = 0.008845	0.000439
547.2 K, 20900 kPa, m1 = 0.01163	0.000459
547.2 K, 20900 kPa, m1 = 0.01515	0.000481
547.2 K, 20900 kPa, m1 = 0.02429	0.000535
548.35 K, 19600 kPa, m1 = 0.0008359	0.000374
548.35 K, 19600 kPa, m1 = 0.002368	0.000385
548.35 K, 19600 kPa, m1 = 0.005537	0.000406
548.35 K, 19600 kPa, m1 = 0.01208	0.000447
548.35 K, 19600 kPa, m1 = 0.02063	0.000495
548.35 K, 19600 kPa, m1 = 0.0288	0.000538
548.35 K, 19600 kPa, m1 = 0.04625	0.000617
548.35 K, 19600 kPa, m1 = 0.1015	0.000921
571.07 K, 19463 kPa, m1 = 0.000429	0.000323
571.07 K, 19463 kPa, m1 = 0.001139	0.000331
571.07 K, 19463 kPa, m1 = 0.004203	0.00035
572.82 K, 20769 kPa, m1 = 0.0002704	0.000339
572.82 K, 20769 kPa, m1 = 0.0005746	0.000349
572.82 K, 20769 kPa, m1 = 0.001483	0.000358
572.82 K, 20769 kPa, m1 = 0.00287	0.000369
572.82 K, 20769 kPa, m1 = 0.006337	0.000389
572.82 K, 20769 kPa, m1 = 0.01032	0.000414
572.82 K, 20769 kPa, m1 = 0.01719	0.000445
572.82 K, 20769 kPa, m1 = 0.0361	0.000516
572.82 K, 20769 kPa, m1 = 0.05276	0.000569
597.9 K, 20618 kPa, m1 = 0.0004999	0.000217
597.9 K, 20618 kPa, m1 = 0.0008991	0.000223
597.9 K, 20618 kPa, m1 = 0.001756	0.000227
597.9 K, 20618 kPa, m1 = 0.003156	0.000233
597.9 K, 20618 kPa, m1 = 0.00593	0.000242
597.9 K, 20618 kPa, m1 = 0.01032	0.000257
597.9 K, 20618 kPa, m1 = 0.02561	0.000303
621.13 K, 20620 kPa, m1 = 0.0003582	0.000117
621.13 K, 20620 kPa, m1 = 0.0009385	0.000117
621.13 K, 20620 kPa, m1 = 0.002851	0.00012
621.13 K, 20620 kPa, m1 = 0.00498	0.000125
621.13 K, 20620 kPa, m1 = 0.01107	0.000138
621.13 K, 20620 kPa, m1 = 0.01908	0.000161
